Assay [1] deals with 5-hydroxytryptamine receptor 6 (Mus musculus, UniProt Q9R1C8).
Assay [2] concerns the target 5-hydroxytryptamine receptor 6 (Rattus norvegicus, UniProt P31388).
In assay [3] the target is 5-hydroxytryptamine receptor 6 (Homo sapiens, UniProt P50406).

pKi: −log10 of the molar value. Counter-ions that a name gives are not always drawn.

5-hydroxytryptamine receptor 6 (Mus musculus, UniProt Q9R1C8), sequence (Q9R1C8 whole entry): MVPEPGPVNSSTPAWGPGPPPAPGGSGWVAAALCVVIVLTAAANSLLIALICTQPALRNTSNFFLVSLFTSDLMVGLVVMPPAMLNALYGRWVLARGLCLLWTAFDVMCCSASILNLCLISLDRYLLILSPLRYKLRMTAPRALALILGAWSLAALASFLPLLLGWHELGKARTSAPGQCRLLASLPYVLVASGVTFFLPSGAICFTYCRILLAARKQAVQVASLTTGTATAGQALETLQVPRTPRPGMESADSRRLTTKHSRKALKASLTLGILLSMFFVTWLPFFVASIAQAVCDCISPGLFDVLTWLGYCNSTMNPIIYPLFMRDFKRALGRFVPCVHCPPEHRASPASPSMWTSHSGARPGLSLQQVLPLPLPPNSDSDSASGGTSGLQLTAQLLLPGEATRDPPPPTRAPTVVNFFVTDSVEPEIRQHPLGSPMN
5-hydroxytryptamine receptor 6 (Rattus norvegicus, UniProt P31388), sequence (P31388 whole entry): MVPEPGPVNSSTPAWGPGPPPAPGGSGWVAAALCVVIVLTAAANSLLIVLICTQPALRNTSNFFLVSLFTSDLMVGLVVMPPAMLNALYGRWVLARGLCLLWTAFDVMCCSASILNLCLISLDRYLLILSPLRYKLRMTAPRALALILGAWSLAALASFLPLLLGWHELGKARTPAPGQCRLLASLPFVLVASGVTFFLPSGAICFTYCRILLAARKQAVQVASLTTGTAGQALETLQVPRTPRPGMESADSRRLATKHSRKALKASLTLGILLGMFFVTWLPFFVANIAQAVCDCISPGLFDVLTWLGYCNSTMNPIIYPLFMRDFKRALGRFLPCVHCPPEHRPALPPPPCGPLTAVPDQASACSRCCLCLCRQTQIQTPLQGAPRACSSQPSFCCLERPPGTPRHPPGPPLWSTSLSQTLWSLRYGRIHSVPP
5-hydroxytryptamine receptor 6 (Homo sapiens, UniProt P50406), sequence (P50406 whole entry): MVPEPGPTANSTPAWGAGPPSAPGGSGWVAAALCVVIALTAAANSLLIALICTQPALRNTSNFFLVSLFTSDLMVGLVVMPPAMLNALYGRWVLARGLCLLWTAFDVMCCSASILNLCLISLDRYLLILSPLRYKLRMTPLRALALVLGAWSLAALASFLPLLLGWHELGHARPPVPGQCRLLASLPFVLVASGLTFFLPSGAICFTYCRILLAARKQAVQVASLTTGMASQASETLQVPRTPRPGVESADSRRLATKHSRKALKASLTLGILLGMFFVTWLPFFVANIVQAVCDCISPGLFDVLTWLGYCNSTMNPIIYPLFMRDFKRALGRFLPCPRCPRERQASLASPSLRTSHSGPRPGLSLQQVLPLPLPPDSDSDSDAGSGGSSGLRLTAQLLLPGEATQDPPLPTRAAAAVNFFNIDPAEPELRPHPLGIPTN

In turn, `CSc1ccc2c(c1)C(N1CCN(C)CC1)Cc1ccccc1S2` (stereo not drawn) [methanesulfonic acid;1-methyl-4-(3-methylsulfanyl-5,6-dihydrobenzo[b][1]benzothiepin-5-yl)piperazine] gave a negative-log Ki (pKi) in assay [1] of 9.25.
Regarding `COc1ccc(NS(=O)(=O)c2ccc(Br)cc2)cc1N1CCN(C)CC1`, the values for the pKi in assay [2], in assay [3] and in assay [1] were 8.32, 8.55 and 7.64, respectively.
For `CN1CCN(C2=c3ccccc3=Nc3ccc(Cl)cc3N2)CC1` [6-chloro-10-(4-methylpiperazin-1-yl)-2,9-diazatricyclo[9.4.0.0^{3,8}]pentadeca-1,3(8),4,6,10,12,14-heptaene], in assay [1], the pKi was 8.19.
As to `CCN(CC)C(=O)C1C=C2c3cccc4[nH]cc(c34)CC2N(C)C1` (stereo not drawn) [NSC_3981], the pKi in assay [2] is 8.58; in assay [1], 8.55.
Turning to `CNS(=O)(=O)Cc1ccc2[nH]cc(CCN(C)C)c2c1` [Sumax], the pKi in assay [2] was less than 5.00; in assay [3], less than 5.00; in assay [1], 5.25.
With `CNc1cc(NS(=O)(=O)c2ccc(N)cc2)nc(NC)n1` [Ro-04-6790], the pKi in assay [2] was 7.54; in assay [3], 7.29; in assay [1] it was less than 5.00.
Regarding `NCCc1c[nH]c2ccc(O)cc12` [[3H]-5-HT], the pKi is 7.10 in assay [2] and 7.02 in assay [1].
`CN1CCN2c3ccccc3Cc3ccccc3C2C1` (stereo not drawn) [MIANSERIN HYDROCHLORIDE] showed a pKi in assay [1] of 8.49.
In assay [2], `COc1ccc2[nH]cc(CCN)c2c1` [tryptamine, 5-Methoxy] showed a pKi of 7.65.
On to `COc1ccc(NS(=O)(=O)c2sc3ccc(Cl)cc3c2C)cc1N1CCNCC1`, for which the pKi is 9.15 in assay [2] and 8.91 in assay [1].
The matching figures for `COc1ccc(NS(=O)(=O)c2ccc(I)cc2)cc1N1CCN(C)CC1` [SB-258585]: 8.64 and 7.95.
The matching figures for `COc1ccc(NS(=O)(=O)c2sc3ccc(Cl)cc3c2C)cc1N1CCN(C)CC1` [SB-258510]: 9.12 and 9.00.
With `COc1ccc(S(=O)(=O)Nc2cc(Br)cc(F)c2Br)cc1N1CCNCC1` [N-(2,5-dibromo-3-fluorophenyl)-4-methoxy-3-(piperazin-1-yl)benzenesulfonamide], the pKi in assay [2] is 8.85; in assay [1], 7.21.
With `CN(C)CCC=C1c2ccccc2CCc2ccccc21`, the pKi in assay [2] is 6.74; in assay [3] it was 6.85; in assay [1] it was 7.05.

For orientation: pKi means the Ki on a negative log10 scale, so that one unit is a factor of ten.

These data come from BindingDB's records for doi:10.1124/mol.64.6.1295 (Glaxosmithkline, 2003).
